Literature values as cited in US20070265345A1, “Novel Biphenyl Compounds And Their Use” (SMITHKLINE BEECHAM CORPORATION, priority 2004, published 2007).

System: A549 cells

SMILES | GI50 [µM]
O=c1[nH]cc(F)c(=O)[nH]1 [5-fluorouracil] | 1
COc1cccc2c1C(=O)c1c(O)c3c(c(O)c1C2=O)C[C@@](O)(C(=O)CO)C[C@@H]3O[C@H]1C[C@H](N)[C@H](O)[C@H](C)O1 [doxorubicin] | 0.063
NC(=O)NO [hydroxyurea] | 500
CC(=O)O[C@H]1C(=O)[C@@]2(C)[C@H]([C@H](OC(=O)c3ccccc3)[C@]3(O)C[C@H](OC(=O)[C@H](O)[C@@H](NC(=O)c4ccccc4)c4ccccc4)C(C)=C1C3(C)C)[C@]1(OC(C)=O)CO[C@@H]1C[C@@H]2O [paclitaxel] | 0.004
